Laboratory results as given in ChEMBL document CHEMBL1131562, “Synthesis of L-enantiomers of 4'-thioarabinofuranosyl pyrimidine nucleosides” (1998).
Converted amounts (≈) assume the structure as drawn. The source made the active and inactive calls. The rule behind the calls is not given here.

Experiments:
Human alphaherpesvirus 1 [1] = test: Antiviral activity against herpes simplex virus type-1 at concentration up to 100 ug/mL; NA means not active; assay type: functional, organism-based
Human alphaherpesvirus 2 [2] = test: Antiviral activity against herpes simplex virus type-2 at concentration up to 100 ug/mL; NA means not active; assay type: functional, organism-based
Homo sapiens = organism: Homo sapiens; test: Cytotoxicity against human T-cell leukemia, CCRF-HSB-2, at concentration up to 100 ug/mL; NA means not active; assay type: functional
Human alphaherpesvirus 1 [3] = test: Effective dose required for antiviral activity against herpes simplex virus type-1; assay type: functional; details: read-out: ED50 (the source's name)
Human alphaherpesvirus 2 [4] = test: Effective dose required for antiviral activity against herpes simplex virus type-2; assay type: functional; details: read-out: ED50 (the source's name)

Cc1cn([C@H]2S[C@@H](CO)[C@H](O)[C@H]2O)c(=O)[nH]c1=O
Activity (Human alphaherpesvirus 1 [1]): inactive | Activity (Human alphaherpesvirus 2 [2]): inactive | Activity (Homo sapiens): inactive

Nc1ccn([C@H]2S[C@@H](CO)[C@H](O)[C@H]2O)c(=O)n1
Activity (Human alphaherpesvirus 1 [1]): inactive | Activity (Human alphaherpesvirus 2 [2]): inactive | Activity (Homo sapiens): inactive

Nc1ccn([C@@H]2S[C@@H](CO)[C@H](O)[C@H]2O)c(=O)n1
EC50 (Human alphaherpesvirus 1 [3]): 10 µg/mL (≈ 38.6 µM) | Activity (Homo sapiens): inactive | EC50 (Human alphaherpesvirus 2 [4]): 10 µg/mL (≈ 38.6 µM)

Cc1cn([C@@H]2S[C@@H](CO)[C@H](O)[C@H]2O)c(=O)[nH]c1=O
Activity (Human alphaherpesvirus 1 [1]): inactive | Activity (Human alphaherpesvirus 2 [2]): inactive | Activity (Homo sapiens): inactive
